A short description of assay [1]: DPPH free radical scavenging activity. The following applies: means ± SEs, n = 3; for DPPH IC50 / IC50: isolated compounds. (In general: DPPH is a stable violet radical that fades when it is reduced.)
Method: The antioxidative activities of the fractions were assayed for the scavenging of 2,2-diphenyl-1-picrylhydrazyl (DPPH) (Sigma-Aldrich, Darmstadt, Germany). Free radicals were assayed using a previously reported method [48] with some modifications. The fractions of EEP, isolated compounds and Trolox (Sigma-Aldrich, Darmstadt, Germany) were dissolved in methanol to make a 50 ppm solution. Each of the test sample solutions (0, 20, 40, 60, 80, and 100 µL) were added into a mixture (0.9 mL) of 0.4 mM DPPH solution, 20% methanol aqueous solution, and 0.2 M MES (2-(N-morpholino) ethanesulfonic acid) (Dojindo, Wako Junyaku Kogyo Co., Ltd., Osaka, Japan) buffer solution (1:1:1). The resulting mixtures were shaken on a vortex mixer and allowed to stand for 20 min. The absorbance of the remaining DPPH was measured with a microplate reader (Biotech, Tokyo, Japan) at 520 nm. […] The inhibitory concentration that results in 50% scavenging of DPPH radicals (IC50) was estimated based on the plot of inhibition versus the final concentration of the propolis samples. The results are expressed in µg Trolox Equivalents (TE) per mL.
The target of assay [2] is α-glucosidase (Saccharomyces cerevisiae, UniProt P53341). Description: Determination of inhibitory type by kinetic analysis (Lineweaver–Burk, Dixon plots). The assay is classed as biochemical. The following applies: for Inhibition Mode: Lineweaver–Burk plot, inhibitor 0, 0.2, 2 µg/mL, p-NPG substrate; for Ki’: mixed inhibition, affinity for enzyme–substrate. The procedure: Inhibitory mechanisms of isolated triterpenes against α-glucosidase at some concentrations (0, 0.2, and 2 µg/mL) were analyzed by the Lineweaver–Burk plot (Figure 2 and Figure 3).
Chain of α-glucosidase (Saccharomyces cerevisiae, UniProt P53341) (P53341 whole entry): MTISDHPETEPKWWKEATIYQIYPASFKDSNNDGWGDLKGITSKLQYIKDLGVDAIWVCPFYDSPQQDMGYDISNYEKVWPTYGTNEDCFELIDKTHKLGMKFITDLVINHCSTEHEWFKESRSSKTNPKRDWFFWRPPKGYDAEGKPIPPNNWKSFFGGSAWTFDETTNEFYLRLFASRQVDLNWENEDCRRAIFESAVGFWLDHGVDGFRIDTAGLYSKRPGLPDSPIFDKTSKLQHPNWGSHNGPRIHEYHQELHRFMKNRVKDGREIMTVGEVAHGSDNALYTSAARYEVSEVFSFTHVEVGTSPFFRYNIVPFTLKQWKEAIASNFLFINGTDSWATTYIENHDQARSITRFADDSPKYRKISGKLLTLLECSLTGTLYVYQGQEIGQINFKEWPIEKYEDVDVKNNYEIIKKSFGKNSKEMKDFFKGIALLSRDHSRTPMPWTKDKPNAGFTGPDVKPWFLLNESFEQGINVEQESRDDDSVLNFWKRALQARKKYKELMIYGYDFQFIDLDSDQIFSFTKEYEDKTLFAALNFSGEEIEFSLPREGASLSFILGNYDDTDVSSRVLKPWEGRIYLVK
The inhibition activity of isolated triterpenes against α-glucosidase was measured with different concentrations (0, 1, 2.5, 5, and 10 mM) of p-NPG as a substrate in the presence or absence of different concentrations (0, 0.2, and 2 µg/mL) of the compounds. The mode of inhibition was then determined by Lineweaver–Burk plot analysis, which was calculated using Michaelis–Menten kinetics. Inhibition constants (Ki) were determined by analysis of Dixon plots and plots of the Y-intercept of the Lineweaver–Burk plot versus the inhibitor [44, 49]. All data are expressed as means ± standard errors of triplicate determinations.

Assay [3] has as its target α-glucosidase from Saccharomyces cerevisiae (Saccharomyces cerevisiae, UniProt P53341). Description: Inhibitory activity assay for yeast α-glucosidase (pNPG substrate). The assay is classed as biochemical. The procedure:
The inhibitory activity of α-glucosidase from Saccharomyces cerevisiae (Sigma-Aldrich, Tokyo, Japan) of the isolation compounds was determined using a previously reported procedure with modifications. p-Nitrophenyl α-glucopyranoside (pNPG) (Sigma-Aldrich, Tokyo, Japan) was used as a substrate. Other chemicals used were of analytical grade. […] Then, 40 µL of 3 mM pNPG solution was added, and the mixture was incubated at 37 °C for 20 min. The reaction was stopped by adding a solution of Na2CO3 (0.1 M, 200 µL), and the absorbance (at 405 nm) of the resulting solution was measured via an Epoch microplate reader (Biotech, Tokyo, Japan). All experiments were performed in three independent replicates. The inhibition of isolated compounds on α-glucosidase was calculated as follows:(2) Inhibition (%)=(1−A1/A0)×100 where A0 is the absorbance of the control, and A1 is the absorbance of the propolis samples. The IC50 values were determined as the half-maximal inhibitory concentration of the inhibitor (isolated compound) which provides 50% inhibition.

The test system of assay [4] is α-glucosidase from the rat small intestine. As to the kind of experiment: Inhibitory activity assay for rat intestinal α-glucosidase. The assay is classed as biochemical. Conditions: for IC50: rat small intestine α-glucosidase, means ± SEs, n = 3, ND: not detected, isolated compounds tested at 0.1–10 µg/mL. The protocol: In a centrifuge tube at 4 °C, 200 mg of rat intestine acetone granules (Sigma-Aldrich, Tokyo, Japan) was placed in 8 mL of physiological saline (0.9 g of NaCl was dissolved in 100 mL pure water). The resulting suspension was homogenized with sonication equipment (Branson, Danbury, CT, USA) for 60 s (ultrasonic treatment cycles: 50, output control: 5) in an ice bath. The resulting homogenate was centrifuged (14,400× g, −21 °C for 20 min) with a high-speed refrigerated centrifuge (Himac CR21N, Hitachi Koki Co, Ltd., Tokyo, Japan). The resulting supernatant was used as an enzyme preparation, and stored at −30 °C until use. Then the measurement of inhibitory activity of isolated compounds against α-glucosidase from the rat small intestine followed the method used to measure the activity of yeast enzymes (S. cerevisiae). The concentration of the isolated compounds used is 0.1–10 µg/mL (0.2–23 µM).

The target of assay [5] is α-glucosidase. The following applies: cited from earlier work.

Chain of α-glucosidase from Saccharomyces cerevisiae (P53341 whole entry): as above

The term IC50 denotes the concentration needed to halve the response being measured. Turning to `C/C(=C\CC[C@@H](C)[C@H]1CC[C@@]2(C)[C@@H]3CC[C@H]4C(C)(C)[C@@H](O)CC[C@@]45C[C@@]35CC[C@]12C)C(=O)O` [Mangiferolic acid (1), mangiferolic acid], in assay [1], the “DPPH IC50” value turned out to be 12.38 ± 3.0 µg/mL and the IC50 turned out to be 27.1 ± 6.57 µM. On α-glucosidase [2], the “Inhibition Mode” value is given as “Uncompetitive”. Moreover, the “Inhibition Mode” value at α-glucosidase [2] (listed as 1) was “uncompetitive inhibition”.

As to `C[C@H]1O[C@H](O[C@H]2[C@H](O)[C@@H](O)[C@@H](O[C@H]3[C@H](O)[C@@H](O)C(O)O[C@@H]3CO)O[C@@H]2CO)[C@H](O)[C@@H](O)[C@@H]1N[C@H]1C=C(CO)[C@@H](O)[C@H](O)[C@H]1O` (some centres unmarked) [Acarbose], the “inhibitory activity against α-glucosidase from the yeast (S. cerevisiae), in words” value in assay [3] was “no activity at all”. In addition, in assay [4], the “inhibitory activity against α-glucosidase from the rat small intestine, in words” value is “very high inhibitory activity” and the IC50 came to 209 ± 0.96 µM.

In the case of `C/C(=C\CC[C@@H](C)[C@H]1CC[C@@]2(C)[C@@H]3CC[C@H]4C(C)(C)C(=O)CC[C@@]45C[C@@]35CC[C@]12C)C(=O)O` [Mangiferonic acid (4), mangiferonic acid], in assay [1], the “DPPH IC50” value was determined as 17.16 ± 2.98 µg/mL and half-maximal inhibition (IC50) required 37.7 ± 6.55 µM. Further, at α-glucosidase [2], the “Inhibition Mode” value is listed as “Mixed inhibition” and the “Ki’” value was 3.23 µM. At α-glucosidase [2] (listed as 4), the “Inhibition Mode” value is “mixed-type inhibition”.

As for `C=C(CC[C@@H](C)[C@H]1CC[C@@]2(C)[C@@H]3CC[C@H]4C(C)(C)C(=O)CC[C@@]45C[C@@]35CC[C@]12C)C(C)C` [24-methylenecycloartenone], at α-glucosidase [5] (isolated from Schisandra chinensis, read-out: IC50 against α-glucosidase), the IC50 was 2.36 µM.

Take `C=C(CCC(C)C1CCC2(C)C3CCC4C(C)(C)C(O)CCC45CC35CCC12C)C(C)C(=O)O` (centres unmarked) [Ambolic acid (5), ambolic acid]: in assay [1], the “DPPH IC50” value came out at 132.30 ± 13.9 µg/mL and the IC50 was determined as 281 ± 29.5 µM. In addition, on α-glucosidase [2], the “Inhibition Mode” value was “Mixed inhibition” and the “Ki’” value was 4.58 µM. For the same molecule, the “Inhibition Mode” value on α-glucosidase [2] (listed as 5) is on record as “mixed-type inhibition”.

Take `OCC(CO)N[C@H]1C[C@](O)(CO)[C@@H](O)[C@H](O)[C@H]1O` [Voglibose]: in assay [4], the “inhibitory activity against α-glucosidase from the rat small intestine, in words” value is reported as “very high inhibitory activity” and the IC50 amounted to 78.6 ± 1.27 µM.

For `C=C(CCC(C)C1CCC2(C)C3CCC4C(C)(C)C(=O)CCC45CC35CCC12C)C(C)C(=O)O` (centres unmarked) [Ambonic acid (3), ambonic acid], in assay [1], the “DPPH IC50” value stood at 42.45 ± 4.5 µg/mL and the 50% inhibitory concentration (IC50) came out at 90.6 ± 9.6 µM. Further, at α-glucosidase [2], the “Inhibition Mode” value was “Mixed inhibition” and the “Ki’” value was 6.42 µM. Besides, the “Inhibition Mode” value on α-glucosidase [2] (listed as 3) is listed as “mixed-type inhibition”.

Consider `Oc1cc(O)c2c(c1)O[C@H](c1ccc(O)c(O)c1)[C@H](O)C2` [(–)-Epicatechin], for which, in the assay on α-glucosidase [5], the “inhibitory value on α-glucosidase” value is “around 96%”. The “inhibitory activity against α-glucosidase from the yeast (S. cerevisiae), in words” value in assay [3] is reported as “showed inhibitory activity”. For the same molecule, the “inhibitory activity against α-glucosidase from the rat small intestine, in words” value in assay [4] is recorded as “no inhibitory activity”.

In the case of `Cc1c(C)c2c(c(C)c1O)CCC(C)(C(=O)O)O2` (centres unmarked) [Trolox, reference compound], the “Antioxidant Activity IC50” value in assay [1] (DPPH, propolis fractions P1 and P2) is on record as 6.76 ± 0.395 µg/mL. Also, in assay [1], the “DPPH IC50” value worked out at 7.17 ± 0.13 µg/mL and the IC50 was 28.6 ± 0.52 µM.

With `CC(C)=CCC[C@@H](C)[C@H]1CC[C@@]2(C)[C@@H]3CC[C@H]4C(C)(C)[C@@H](O)CC[C@@]45C[C@@]35CC[C@]12C` [Cycloartenol (2), cycloartenol], in assay [1], the “DPPH IC50” value turned out to be 120.21 ± 11.2 µg/mL and half-maximal inhibition (IC50) required 282 ± 26.3 µM. Besides, the “Inhibition Mode” value at α-glucosidase [2] is listed as “Uncompetitive”. At α-glucosidase [2] (listed as 2), the “Inhibition Mode” value was “uncompetitive inhibition”.

Values taken from publication PMC6789647, “α-Glucosidase Inhibitory Activity of Cycloartane-Type Triterpenes Isolated from Indonesian Stingless Bee Propolis and Their Structure–Activity Relationship” (Pharmaceuticals, 2019).
